From doi:10.1101/2023.10.20.563248v1 (biorxiv, 2023)

Columns and labels:
Conditions in all cases: 1 µM; inhibitor
PAK7 = PAK7 (Homo sapiens, UniProt Q9P286)
IRAK1 = IRAK1 (Homo sapiens, UniProt P51617)
SYK = SYK (Homo sapiens, UniProt P43405)
MEK5 = MEK5 (Homo sapiens, UniProt Q13163)
JNK2 = JNK2 (Homo sapiens, UniProt P45984)
EGFR = EGFR (Homo sapiens, UniProt P00533)
CAMKK1 = CAMKK1 (Homo sapiens, UniProt Q8N5S9)
CDK17 = CDK17 (Homo sapiens, UniProt Q00537)
PYK2 = PYK2 (Homo sapiens, UniProt Q14289)
CK1g2 = CK1g2 (Homo sapiens, UniProt P78368)
DYRK4 = DYRK4 (Homo sapiens, UniProt Q9NR20)
EPHA6 = EPHA6 (Homo sapiens, UniProt Q9UF33)
EPHA6, sequence (Q9UF33 whole entry): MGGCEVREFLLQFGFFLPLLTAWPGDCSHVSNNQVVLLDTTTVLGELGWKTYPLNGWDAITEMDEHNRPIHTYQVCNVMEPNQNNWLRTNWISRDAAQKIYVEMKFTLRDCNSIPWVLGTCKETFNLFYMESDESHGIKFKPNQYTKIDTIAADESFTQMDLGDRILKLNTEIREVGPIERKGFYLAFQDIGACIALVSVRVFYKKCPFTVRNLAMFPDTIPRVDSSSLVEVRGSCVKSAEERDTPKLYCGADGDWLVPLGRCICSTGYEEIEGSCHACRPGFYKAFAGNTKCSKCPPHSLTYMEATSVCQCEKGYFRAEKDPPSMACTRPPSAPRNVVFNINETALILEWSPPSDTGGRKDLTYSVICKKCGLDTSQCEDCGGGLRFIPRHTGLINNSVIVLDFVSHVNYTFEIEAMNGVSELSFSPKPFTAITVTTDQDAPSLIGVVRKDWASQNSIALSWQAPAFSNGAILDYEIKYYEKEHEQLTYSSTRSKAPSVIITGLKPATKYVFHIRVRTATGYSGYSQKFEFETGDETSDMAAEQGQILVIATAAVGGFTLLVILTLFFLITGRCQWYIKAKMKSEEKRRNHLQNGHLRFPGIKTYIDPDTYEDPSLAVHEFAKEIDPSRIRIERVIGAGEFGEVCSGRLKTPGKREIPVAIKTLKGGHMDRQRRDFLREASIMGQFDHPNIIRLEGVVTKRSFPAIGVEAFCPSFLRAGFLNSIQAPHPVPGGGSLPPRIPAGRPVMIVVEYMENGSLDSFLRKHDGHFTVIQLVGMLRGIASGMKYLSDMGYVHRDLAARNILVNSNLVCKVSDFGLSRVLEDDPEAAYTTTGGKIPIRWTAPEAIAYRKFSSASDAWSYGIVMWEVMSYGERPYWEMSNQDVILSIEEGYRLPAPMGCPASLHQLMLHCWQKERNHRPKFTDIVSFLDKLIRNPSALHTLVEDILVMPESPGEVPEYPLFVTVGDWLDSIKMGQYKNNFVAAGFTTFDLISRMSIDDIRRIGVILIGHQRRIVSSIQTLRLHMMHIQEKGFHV

ALK = ALK (Homo sapiens, UniProt Q9UM73)
p38d = p38d (Homo sapiens, UniProt O15264)
p38d, sequence (O15264 whole entry): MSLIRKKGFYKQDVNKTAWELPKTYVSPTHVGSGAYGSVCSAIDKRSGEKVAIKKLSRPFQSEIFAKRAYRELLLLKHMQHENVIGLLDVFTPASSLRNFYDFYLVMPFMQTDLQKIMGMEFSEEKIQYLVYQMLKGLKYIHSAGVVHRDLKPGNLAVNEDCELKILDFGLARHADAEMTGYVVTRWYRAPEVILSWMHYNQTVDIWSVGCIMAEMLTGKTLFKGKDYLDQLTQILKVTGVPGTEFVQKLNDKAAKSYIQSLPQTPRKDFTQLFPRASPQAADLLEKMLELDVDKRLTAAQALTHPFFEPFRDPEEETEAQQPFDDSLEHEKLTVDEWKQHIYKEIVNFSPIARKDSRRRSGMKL

AKT3 = AKT3 (Homo sapiens, UniProt Q9Y243)
AKT3, sequence (Q9Y243 whole entry): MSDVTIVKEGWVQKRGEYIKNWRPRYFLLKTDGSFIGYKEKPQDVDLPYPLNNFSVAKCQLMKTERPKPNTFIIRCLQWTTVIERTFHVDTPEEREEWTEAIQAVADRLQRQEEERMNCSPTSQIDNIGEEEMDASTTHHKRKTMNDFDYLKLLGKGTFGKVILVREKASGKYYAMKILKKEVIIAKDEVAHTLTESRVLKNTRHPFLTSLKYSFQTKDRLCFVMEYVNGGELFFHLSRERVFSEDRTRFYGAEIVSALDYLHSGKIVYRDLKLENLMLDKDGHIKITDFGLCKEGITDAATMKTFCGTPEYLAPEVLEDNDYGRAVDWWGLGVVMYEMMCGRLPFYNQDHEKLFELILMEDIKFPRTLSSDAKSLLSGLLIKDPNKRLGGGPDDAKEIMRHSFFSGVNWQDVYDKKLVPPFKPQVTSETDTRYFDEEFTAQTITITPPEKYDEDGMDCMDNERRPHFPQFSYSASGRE

CDK20 = CDK20 (Homo sapiens, UniProt Q8IZL9)
CDK20, sequence (Q8IZL9 whole entry): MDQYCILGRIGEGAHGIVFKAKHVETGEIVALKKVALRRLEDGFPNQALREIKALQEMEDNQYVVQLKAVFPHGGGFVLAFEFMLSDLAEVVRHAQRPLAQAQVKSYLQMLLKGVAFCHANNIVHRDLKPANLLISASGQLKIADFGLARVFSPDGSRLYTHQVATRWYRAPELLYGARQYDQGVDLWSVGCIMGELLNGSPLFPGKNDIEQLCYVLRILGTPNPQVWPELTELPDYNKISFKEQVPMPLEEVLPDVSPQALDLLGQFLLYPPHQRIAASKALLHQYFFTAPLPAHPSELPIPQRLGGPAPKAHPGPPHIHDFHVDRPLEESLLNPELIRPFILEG

ABL1 = ABL1 (Homo sapiens, UniProt P00519)
TLK1 = TLK1 (Homo sapiens, UniProt Q9UKI8)
TIE2 = TIE2 (Homo sapiens, UniProt Q02763)
PHKG2 = PHKG2 (Homo sapiens, UniProt P15735)
FAK = FAK (Homo sapiens, UniProt Q05397)
BRSK1 = BRSK1 (Homo sapiens, UniProt Q8TDC3)
TYK2 = TYK2 (Homo sapiens, UniProt P29597)
NEK2 = NEK2 (Homo sapiens, UniProt P51955)
NEK2, sequence (P51955 whole entry): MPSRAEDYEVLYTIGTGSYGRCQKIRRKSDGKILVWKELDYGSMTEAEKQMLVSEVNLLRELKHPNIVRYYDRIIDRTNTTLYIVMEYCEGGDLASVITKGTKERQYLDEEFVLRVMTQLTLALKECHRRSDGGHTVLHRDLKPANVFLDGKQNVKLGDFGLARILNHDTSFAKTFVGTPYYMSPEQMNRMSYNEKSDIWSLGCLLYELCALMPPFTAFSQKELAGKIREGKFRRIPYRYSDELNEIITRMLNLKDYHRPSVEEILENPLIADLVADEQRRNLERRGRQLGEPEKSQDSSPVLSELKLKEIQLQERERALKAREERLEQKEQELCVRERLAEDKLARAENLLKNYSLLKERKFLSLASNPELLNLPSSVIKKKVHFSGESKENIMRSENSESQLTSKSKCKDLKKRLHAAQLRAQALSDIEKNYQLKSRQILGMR

DYRK3 = DYRK3 (Homo sapiens, UniProt O43781)
TAOK3 = TAOK3 (Homo sapiens, UniProt Q9H2K8)
TAOK3, sequence (Q9H2K8 whole entry): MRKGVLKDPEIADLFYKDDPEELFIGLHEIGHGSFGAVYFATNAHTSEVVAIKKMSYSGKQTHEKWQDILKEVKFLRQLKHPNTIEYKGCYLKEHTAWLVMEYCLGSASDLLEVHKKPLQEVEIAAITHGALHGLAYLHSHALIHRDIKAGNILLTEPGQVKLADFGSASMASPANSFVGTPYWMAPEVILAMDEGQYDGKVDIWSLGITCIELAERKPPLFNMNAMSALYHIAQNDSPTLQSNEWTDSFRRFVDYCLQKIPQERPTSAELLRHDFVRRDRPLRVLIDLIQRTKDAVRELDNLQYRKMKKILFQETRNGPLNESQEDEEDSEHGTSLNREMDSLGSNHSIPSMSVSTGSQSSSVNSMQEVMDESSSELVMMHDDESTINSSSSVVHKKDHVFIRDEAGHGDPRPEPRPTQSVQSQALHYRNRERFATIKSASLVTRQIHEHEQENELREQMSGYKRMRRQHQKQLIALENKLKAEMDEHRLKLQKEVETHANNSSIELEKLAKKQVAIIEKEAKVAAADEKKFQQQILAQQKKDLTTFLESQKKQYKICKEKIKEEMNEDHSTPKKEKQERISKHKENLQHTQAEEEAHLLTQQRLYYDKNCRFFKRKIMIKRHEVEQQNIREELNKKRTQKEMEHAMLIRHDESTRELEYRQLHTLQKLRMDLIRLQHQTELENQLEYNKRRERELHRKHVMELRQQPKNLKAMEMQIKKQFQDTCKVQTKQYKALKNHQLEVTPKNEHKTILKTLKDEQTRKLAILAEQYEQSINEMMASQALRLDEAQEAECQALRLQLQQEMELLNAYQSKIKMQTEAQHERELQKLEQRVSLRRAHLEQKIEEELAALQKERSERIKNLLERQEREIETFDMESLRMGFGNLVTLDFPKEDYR

SGK3 = SGK3 (Homo sapiens, UniProt Q96BR1)
WNK1 = WNK1 (Homo sapiens, UniProt Q9H4A3)
FGFR4 = FGFR4 (Homo sapiens, UniProt P22455)
FGFR4, sequence (P22455 whole entry): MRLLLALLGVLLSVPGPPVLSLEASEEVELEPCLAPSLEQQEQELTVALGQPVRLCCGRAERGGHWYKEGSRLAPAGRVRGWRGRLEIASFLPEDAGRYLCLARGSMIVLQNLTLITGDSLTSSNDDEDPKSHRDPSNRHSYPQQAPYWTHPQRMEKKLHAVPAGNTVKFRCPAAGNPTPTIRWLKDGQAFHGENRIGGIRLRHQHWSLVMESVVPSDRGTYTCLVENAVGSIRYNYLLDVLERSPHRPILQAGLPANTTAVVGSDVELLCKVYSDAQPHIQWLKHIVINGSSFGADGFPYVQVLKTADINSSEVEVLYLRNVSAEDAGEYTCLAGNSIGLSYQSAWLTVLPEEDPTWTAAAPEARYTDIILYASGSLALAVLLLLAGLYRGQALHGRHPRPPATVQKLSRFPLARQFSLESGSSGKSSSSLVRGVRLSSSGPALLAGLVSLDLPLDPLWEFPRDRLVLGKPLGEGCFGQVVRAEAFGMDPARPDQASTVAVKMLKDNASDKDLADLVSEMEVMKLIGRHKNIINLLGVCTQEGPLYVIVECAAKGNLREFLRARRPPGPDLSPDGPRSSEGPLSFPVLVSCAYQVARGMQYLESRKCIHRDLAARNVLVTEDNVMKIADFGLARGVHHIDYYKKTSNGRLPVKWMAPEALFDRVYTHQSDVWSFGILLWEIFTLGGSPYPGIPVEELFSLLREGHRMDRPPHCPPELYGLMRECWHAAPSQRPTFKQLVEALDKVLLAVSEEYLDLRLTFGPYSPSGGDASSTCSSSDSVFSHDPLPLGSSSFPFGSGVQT

FGFR2 = FGFR2 (Homo sapiens, UniProt P21802)
SIK2 = SIK2 (Homo sapiens, UniProt Q9H0K1)

MEK5, sequence (Q13163 whole entry): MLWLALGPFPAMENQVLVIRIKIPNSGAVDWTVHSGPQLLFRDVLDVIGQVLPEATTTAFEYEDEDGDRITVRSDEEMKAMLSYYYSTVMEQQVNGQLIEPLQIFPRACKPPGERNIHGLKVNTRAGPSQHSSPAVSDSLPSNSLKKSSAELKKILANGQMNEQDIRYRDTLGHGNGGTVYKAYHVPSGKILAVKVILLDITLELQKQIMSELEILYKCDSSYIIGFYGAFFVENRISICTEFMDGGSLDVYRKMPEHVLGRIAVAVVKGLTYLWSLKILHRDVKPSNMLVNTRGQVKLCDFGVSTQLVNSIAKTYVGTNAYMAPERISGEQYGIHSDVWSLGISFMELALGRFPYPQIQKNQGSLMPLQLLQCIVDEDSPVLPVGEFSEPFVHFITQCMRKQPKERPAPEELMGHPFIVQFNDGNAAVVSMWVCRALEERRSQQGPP

For `O=C1NCCCCCNc2nc(c3ccccc3n2)Nc2cc1[nH]n2` [21c, (Z)-3^1H-2,5,11-triaza-1(4,2)-quinazolina-3(3,5)-pyrazolacycloundecaphan-4-one], the “21c Remaining activity, percent of control [%]” value (PAK7) was 87.1%, the “21c Remaining activity, percent of control [%]” value (IRAK1) was 101.8% and the “21c Remaining activity, percent of control [%]” value (SYK) was 99.7%. For the same molecule, the “21c Remaining activity, percent of control [%]” value (MEK5) was 70.1%, the “21c Remaining activity, percent of control [%]” value (JNK2) was 84.0% and the “21c Remaining activity, percent of control [%]” value (EGFR) was 100.0%. The “21c Remaining activity, percent of control [%]” value (CAMKK1) was 94.6%, the “21c Remaining activity, percent of control [%]” value (CDK17) was 70.9% and the “21c Remaining activity, percent of control [%]” value (PYK2) was 80.8%. The “21c Remaining activity, percent of control [%]” value (CK1g2) was 109.6%, the “21c Remaining activity, percent of control [%]” value (DYRK4) was 95.6% and the “21c Remaining activity, percent of control [%]” value (EPHA6) was 97.4%. For the same molecule, the “21c Remaining activity, percent of control [%]” value (ALK) was 100.1%, the “21c Remaining activity, percent of control [%]” value (p38d) was 94.8% and the “21c Remaining activity, percent of control [%]” value (AKT3) was 102.5%. The “21c Remaining activity, percent of control [%]” value (CDK20) was 84.4%, the “21c Remaining activity, percent of control [%]” value (ABL1) was 106.1% and the “21c Remaining activity, percent of control [%]” value (TLK1) was 92.4%. The “21c Remaining activity, percent of control [%]” value (TIE2) was 116.9%, the “21c Remaining activity, percent of control [%]” value (PHKG2) was 98.0% and the “21c Remaining activity, percent of control [%]” value (FAK) was 91.4%. For the same molecule, the “21c Remaining activity, percent of control [%]” value (BRSK1) was 112.9%, the “21c Remaining activity, percent of control [%]” value (TYK2) was 116.8% and the “21c Remaining activity, percent of control [%]” value (NEK2) was 93.5%. The “21c Remaining activity, percent of control [%]” value (DYRK3) was 96.4%, the “21c Remaining activity, percent of control [%]” value (TAOK3) was 102.4% and the “21c Remaining activity, percent of control [%]” value (SGK3) was 96.1%. The “21c Remaining activity, percent of control [%]” value (WNK1) was 94.9%, the “21c Remaining activity, percent of control [%]” value (FGFR4) was 96.9% and the “21c Remaining activity, percent of control [%]” value (FGFR2) was 79.5%. The “21c Remaining activity, percent of control [%]” value (SIK2) was 97.5%.
